This note sets out measurements from US12485179B2, “Cholecystokinin B receptor targeting for imaging and therapy” (Purdue Research Foundation, priority 2012, dated 2025).

The target of one series is T1, CCK2i4svR (Homo sapiens, UniProt P32239).
T1 construct: expressed in transfected cells; host or cells: HEK-293, G418-selected, from Dr. Mark Hellmich (University of Texas at Galveston)
T1 sequence (P32239 1-516 isoform P32239-2): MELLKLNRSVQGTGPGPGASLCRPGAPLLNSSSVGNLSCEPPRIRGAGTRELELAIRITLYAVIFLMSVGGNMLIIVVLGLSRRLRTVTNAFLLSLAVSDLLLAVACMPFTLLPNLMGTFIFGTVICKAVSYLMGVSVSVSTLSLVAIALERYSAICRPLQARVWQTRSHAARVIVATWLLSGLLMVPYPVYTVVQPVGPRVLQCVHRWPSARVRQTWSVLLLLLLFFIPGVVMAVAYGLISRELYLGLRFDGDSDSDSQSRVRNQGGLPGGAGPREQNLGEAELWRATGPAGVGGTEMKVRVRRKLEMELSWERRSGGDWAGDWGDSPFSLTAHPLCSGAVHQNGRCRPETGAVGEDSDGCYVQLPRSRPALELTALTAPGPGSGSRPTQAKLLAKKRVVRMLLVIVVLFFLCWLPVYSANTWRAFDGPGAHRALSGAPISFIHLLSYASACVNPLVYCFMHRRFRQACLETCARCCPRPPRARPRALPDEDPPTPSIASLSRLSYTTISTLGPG
The series is described as follows: Binding of 99mTc conjugates to HEK CCK2i4svR cells (cell bound radioactivity). Here is the method: (§1) CRL-1, CRL-2, CRL-3 and CRL-4 were chelated to ^99mTc and tested for binding using two transfected cell lines of HEK-CCK2R (HEK-293 CCK2R) and HEK-CCK2R splice cell line (HEK CCK2i4svR), obtained from Dr. Mark Hellmich (University of Texas at Galveston). Cells were cultured in Dulbecco's modified Eagles (Gibco) supplemented with 10% Fetal Bovine Serum and G418 disulfate (SIGMA; 400 μg/ml), 1% penicillin/streptomycin at 37° C. in a humidified 95% air, 5% CO2 atmosphere.
(§2) Competition studies were performed using 100 fold excess of free Z-360 containing corresponding peptide linker and no chelating moiety. HEK 293 CCK2R and HEK CCK2i4svR were seeded onto 24 well plates and allowed to become confluent over 48-72 hours. Spent medium in each well was replaced with 0.5 ml fresh media containing 0.5% BSA and increasing concentrations of the test article. After incubating for 1 h at 37° C. cells were rinsed with incubation solution (2×1.0 ml) to remove any unbound radioactivity. Cells were then resuspended on 0.5 ml 0.25N NaOH and cell radioactivity was counted using a γ-counter. The dissociation constant (KD) was calculated using a plot of cell bound radioactivity versus the concentration of the radiotracer using Graphpad Prism 4 and assuming a non-cooperative single site binding equilibrium.

The next series concerns the target T2, CCK2R (Homo sapiens, UniProt P32239).
T2 sequence (P32239 1-447): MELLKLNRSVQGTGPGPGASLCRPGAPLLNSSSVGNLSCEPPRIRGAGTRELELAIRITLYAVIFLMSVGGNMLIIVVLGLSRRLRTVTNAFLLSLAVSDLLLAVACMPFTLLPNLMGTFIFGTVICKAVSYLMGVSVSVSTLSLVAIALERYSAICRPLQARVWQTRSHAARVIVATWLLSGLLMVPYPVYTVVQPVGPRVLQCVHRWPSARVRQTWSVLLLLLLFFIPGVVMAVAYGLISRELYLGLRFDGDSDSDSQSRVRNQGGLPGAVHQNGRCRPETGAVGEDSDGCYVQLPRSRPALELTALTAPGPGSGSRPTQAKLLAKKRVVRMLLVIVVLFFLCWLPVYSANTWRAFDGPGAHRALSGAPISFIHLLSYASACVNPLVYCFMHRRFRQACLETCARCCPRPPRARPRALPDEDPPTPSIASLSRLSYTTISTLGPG
The series is described as follows: Binding of 99mTc conjugates to HEK-293 CCK2R cells (cell bound radioactivity). Further details: expressed in transfected cells; host or cells: HEK-293, G418-selected, from Dr. Mark Hellmich (University of Texas at Galveston). The method, then:
as §1, §2

The next series concerns HEK CCK2i4svR tumors. The series is described as follows: In vivo radio-imaging and bio-distribution, HEK CCK2i4svR tumor xenografts. The arrangement: species or system nu/nu mice. Here is the method: In order to test the in vivo specificity of CRL-3 chelated with ^99mTc, HEK CCK2R and CCK2i4svR subcutaneous tumors were produced in nude mice according to known methods. Athymic female nu/nu mice were purchased from Harlan Laboratories and maintained on normal rodent chow and housed in a sterile environment on a standard 12 hour light and dark cycle for the duration of the study. All animal procedures were approved by the Purdue Animal Care and Use Committee in accordance with NIH guidelines.
150 microcurie of CRL-3 ^99mTc was injected intravenously into each mouse. FIGS. 3A-B show an overlay of whole-body radio-images on white light photographs of mice bearing images of HEK CCK2R (a, b) and HEK CCKRi4sv (c, d) tumor xenografts in nu/nu mice two hours after the administration of CRL-3 ^99mTc. Kidneys were shielded with a lead plate. Mice a and c had the radioactive conjugate administered along with 100 fold of free unlabeled targeting ligand. In mice b and d, only the radio-conjugate CRL-3 ^99mTc was administered. Arrows indicate location of the tumor.
Following the above radio-imaging studies, animals were dissected and selected organs/tissues were collected into pre-weighed γ-counter tubes. Radioactivity of weighed tissues and test compounds were counted in a γ-counter. CPM values were decay corrected and results were calculated as % injected dose per gram of wet tissue (% ID/g). […]

In the case of `CC(C)(C)C(=O)CN1C(=O)[C@H](NC(=O)Nc2cccc(C(=O)NCCCCCCCC(=O)N[C@H](CCC(=O)O)C(=O)N[C@H](CCC(=O)NC[C@H](O)[C@@H](O)[C@H](O)[C@H](O)CO)C(=O)N[C@H](CCC(=O)O)C(=O)N[C@H](CCC(=O)NC[C@H](O)[C@@H](O)[C@H](O)[C@H](O)CO)C(=O)NC[C@@H]3[NH][99Tc]45[S]C[C@@H](C(=O)O)[N]4C(=O)[C@H](CC(=O)O)[N]5C3=O)c2)CN(C2CCCCC2)c2ccccc21` (stereo partly shown) [CRL-3 ^99mTc], the Kd at CCK2i4svR was found to be 4 nM; at CCK2R, 30 nM. Besides, the “accumulation of radio-conjugate, whole-body radio-image” value in the series on HEK CCK2i4svR tumors (150 microcurie i.v., two hours after administration, kidneys shielded) is recorded as “accumulated mainly in the receptor expressing tumor with little or no accumulation in other tissues except the kidney”. In addition, in the series on HEK CCK2i4svR tumors (after radio-imaging, n=5 mice/group), the “bio-distribution of radiotracer in organs/tissues” value is “only the tumor and kidneys show excessive accumulation of radiotracer”.
